Results taken from patent publication US9657033B2, “Tetrahydronaphthyridine and related bicyclic compounds for inhibition of RORγ activity and the treatment of disease” (Merck Sharp & Dohme Corp., priority 2012, dated 2017).

What was measured:
[1] = molecular target: T1, RORγ-LBD (Homo sapiens (Human), UniProt P51449); assay: RORγ-Ligand Binding Domain (LBD) TR-FRET Assay Protocol I; assay type: biochemical; details: for RORγ inhibition: Protocol I, assay measuring EC50 values less than or equal to 10 μM; for EC50: RORγ-LBD lysate from SF9 cells, SRC1-2 peptide
T1 sequence (P51449 269-508): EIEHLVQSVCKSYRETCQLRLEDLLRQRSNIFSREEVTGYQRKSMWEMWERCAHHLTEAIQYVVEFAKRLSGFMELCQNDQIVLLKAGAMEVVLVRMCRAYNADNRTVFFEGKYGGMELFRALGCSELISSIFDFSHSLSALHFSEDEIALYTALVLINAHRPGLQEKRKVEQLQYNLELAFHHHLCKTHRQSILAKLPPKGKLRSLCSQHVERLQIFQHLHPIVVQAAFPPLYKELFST
Protocol: Part I—Procedures for RORγ-Ligand Binding Domain TR-FRET Assay Protocol I
Recombinant,HIS-tagged RORγ-LBD was expressed in SF9 cells using a baculovirus expression system. Cells were lysed and the lysate was used as a source for RORγ-LBD for the assay. A 1:80 dilution of RORγ-LBD lysate in assay buffer (25 mM HEPES pH 7.0, 100 mM NaCl, 0.01% Tween, 0.1% BSA) was prepared and 5 μL was added to each well (RORγ-LBD final concentration ˜3 nM). Control wells received lysate from SF9 cells not expressing RORγ-LBD.
Compounds to be tested were diluted to 100× final test concentration in DMSO and further diluted to 4× final test concentration using assay buffer to provide the test compound mixture. An aliquot (5 μL) of the test compound mixture was added to each well.
A 4× stock of biotinylated-LXXLL peptide from SRC1-2 (Biotin-[…]) was prepared in assay buffer and a 5 μL aliquot added to each well (450 nM final concentration). A 4× solution of europium tagged anti-HIS antibody (2 nM final concentration) and APC conjugated streptavidin (60 nM final concentration) were prepared and a 5 μL aliquot added to each well.
(§1) The final assay mixture was incubated for 4 hours to overnight, and the fluorescence signal was measured on an Envision plate reader: (Excitation filter=340 nm; APC emission=665 nm; Europium emission=615 nm; dichroic mirror=D400/D630; delay time=100 μs, integration time=200 μs).
EC50 values for test compounds were calculated from the quotient of the fluorescence signal at 665 nm divided by the fluorescence signal at 615 nm using GraphPad Prism software

[2] = molecular target: T1, RORγ-LBD; assay: RORγ-Ligand Binding Domain (LBD) TR-FRET Assay Protocol II; assay type: biochemical; details: purified RORγ-LBD, SRC1 peptide, overnight at 4° C.
Protocol: Part II—Procedures for RORγ-Ligand Binding Domain TR-FRET Assay Protocol II
HIS-tagged RORγ-LBD protein was expressed in SF9 cells using a baculovirus expression system. The RORγ-LBD protein was purified by […]. Separately, SF9 cells not expressing recombinant protein were lysed in TBS buffer (25 mM Tris, pH 8.0, 150 mM NaCl) under sonication. The lysate was added to the purified RORγ-LBD in a volume equivalent of 0.75 μL lysate (from 30,000 SF9 cells) per 75 femtomol of RORγ-LBD protein. The resulting mixture was diluted in assay buffer (50 mM Tris pH 7.0, 50 mM KCl, 1 mM EDTA, 0.1 mM DTT, 0.01% BSA) to obtain RORγ-LBD protein at a final concentration of 3 nM.
Compounds to be tested were injected to the assay plate using Acoustic Droplet Ejection technology by Echo 550 liquid handler (Labcyte, Calif.).
A stock of biotinylated-LXXLL peptide from coactivator SRC1 (Biotin-[…]) was prepared in assay buffer and added to each well (100 nM final concentration). A solution of Europium tagged anti-HIS antibody (1.25 nM final concentration) and APC-conjugated streptavidin (8 nM final concentration) were also added to each well.
as §1, with “overnight at 4° C.,” for “for 4 hours to overnight,”, “μs). The EC50 value for test compounds was calculated from the quotient of the fluorescence signal at 665 nm divided by the fluorescence signal at 615 nm” for “μs).”

Row | EC50 [1] [nM] | EC50 [2] [nM] | Structure (SMILES) | RORγ inhibition [1]
1 | 48000 | – | N#Cc1cccc(S(=O)(=O)n2ncc3ncc(NC(=O)c4c(F)cccc4Cl)cc32)c1 [Compound 3] | did not provide measurable RORγ inhibition
2 | 829 | 63 | C[C@H]1CN(S(=O)(=O)c2ccc(F)cc2)c2cc(NC(=O)c3c(F)cccc3Cl)cnc2O1 [Compound 26] | –
3 | 414 | 61 | Cc1cccc(S(=O)(=O)N2CCCc3ncc(NC(=O)[C@@H](C)c4ccccc4)cc32)c1 [Compound 38, (S)-2-phenyl-N-(5-(m-tolylsulfonyl)-5,6,7,8-tetrahydro-1,5-naphthyridin-3-yl)propanamide] | –
4 | 2410 | – | O=C(Nc1cc2c(cn1)cnn2S(=O)(=O)c1ccc(F)cc1)c1c(Cl)cccc1C(F)(F)F [Compound 6] | –
5 | 20 | 11 | C[C@H]1CN(S(=O)(=O)c2cccc(C3CC3)c2)c2cc(NC(=O)c3c(F)cccc3Cl)cnc2O1 [Compound 27] | –
6 | 700 | 202 | O=C(Nc1cnc2c(c1)N(S(=O)(=O)c1ccc(F)cc1)CCC2)c1c(F)cccc1F [Compound 36, 2,6-difluoro-N-(5-(4-fluorobenzenesulfonyl)-5,6,7,8-tetrahydro-[1,5]naphthyridin-3-yl)benzamide] | –
7 | 760 | 107 | CC(=O)NC[C@H]1CN(S(=O)(=O)c2cccc(C)c2)c2cc(NC(=O)[C@@H](C)c3ccccc3)cnc2O1 [Compound 17, (S)-N-((S)-3-(Acetamidomethyl)-1-(m-tolylsulfonyl)-2,3-dihydro-1H-pyrido[2,3-b][1,4]oxazin-7-yl)-2-phenylpropanamide] | –
8 | 447 | 324 | Cc1nn(C(F)F)cc1S(=O)(=O)n1ncc2cnc(NC(=O)c3c(F)cccc3Cl)cc21 [Compound 11] | –
9 | 2610 | – | O=C(Nc1cc2c(cn1)cnn2S(=O)(=O)c1ccc(F)cc1)c1c(Cl)cccc1Cl [Compound 5] | –
10 | 174 | – | O=C(Nc1cnc2c(c1)N(S(=O)(=O)c1ccc(F)cc1)CCO2)c1c(F)cccc1Cl [Compound 13, 2-chloro-6-fluoro-N-[1-(4-fluorobenzenesulfonyl)-2,3-dihydro-1H-pyrido[2,3-b][1,4]oxazin-7-yl]benzamide] | –
11 | 50000 | – | O=C(Nc1cc2c(cn1)cnn2S(=O)(=O)c1ccc(F)cc1)c1c(F)cccc1F [Compound 4] | did not provide measurable RORγ inhibition
12 | 200 | – | N#Cc1cccc(S(=O)(=O)N2CCOc3ncc(NC(=O)c4c(F)cccc4Cl)cc32)c1 [Compound 21] | –
13 | 100 | – | O=C(Nc1cnc2c(c1)N(S(=O)(=O)c1ccc(F)c(F)c1)CCO2)c1c(F)cccc1Cl [Compound 23] | –
14 | – | 13 | CC(=O)NC[C@H]1CN(S(=O)(=O)c2cccc(C3CC3)c2)c2cc(NC(=O)c3c(Cl)cccc3Cl)cnc2O1 [Compound 18, (S)-N-(3-(acetamidomethyl)-1-((3-cyclopropylphenyl)sulfonyl)-2,3-dihydro-1H-pyrido[2,3-b][1,4]oxazin-7-yl)-2,6-dichlorobenzamide] | –
15 | – | 24 | CC(C)(C)OC(=O)N[C@@H]1Cc2ncc(NC(=O)c3c(Cl)cccc3Cl)cc2N(S(=O)(=O)c2cccc(C(F)(F)F)c2)C1 [Compound 59] | –
16 | – | 36 | CC(C)OC(=O)N[C@H]1Cc2ncc(NC(=O)c3c(Cl)cccc3Cl)cc2N(S(=O)(=O)c2cccc(C(F)(F)F)c2)C1 [Compound 47] | –
17 | – | 42 | O=C(Nc1cnc2c(c1)N(S(=O)(=O)c1cccc(C(F)(F)F)c1)C[C@@H](N1CCOC1=O)C2)c1c(Cl)cccc1Cl [Compound 97, (S)-2,6-dichloro-N-(7-(2-oxooxazolidin-3-yl)-5-((3-(trifluoromethyl)phenyl)sulfonyl)-5,6,7,8-tetrahydro-1,5-naphthyridin-3-yl)benzamide] | –
18 | – | 97 | Cc1cccc(S(=O)(=O)N2C[C@H](C)Oc3ncc(NC(=O)C(C)c4ccc(F)cc4)cc32)c1 (some centres unmarked) [Compound 32] | –
19 | – | 111 | Cc1cccc(S(=O)(=O)N2C[C@H](C)Oc3ncc(NC(=O)C(C)C(F)(F)F)cc32)c1 (some centres unmarked) [Compound 30] | –
20 | – | 23 | Cc1cccc(S(=O)(=O)N2C[C@H](NC(=O)[C@H](C)O)Cc3ncc(NC(=O)c4c(Cl)cccc4Cl)cc32)c1 [Compound 67] | –

Row | EC50 [1] [nM] | EC50 [2] [nM] | Structure (SMILES) | RORγ inhibition [1]
21 | – | 553 | CCNC1Cc2ncc(NC(=O)c3c(Cl)cccc3Cl)cc2N(S(=O)(=O)c2cccc(C)c2)C1 (centres unmarked) [Compound 77] | –
22 | 90 | – | O=C(Nc1cnc2c(c1)N(S(=O)(=O)c1ccc(Cl)cc1)CCO2)c1c(F)cccc1Cl [Compound 22] | –
23 | 2400 | – | O=C(Nc1cc2c(cn1)cnn2S(=O)(=O)c1ccc(F)cc1)c1c(F)cccc1Cl [Compound 2, 2-chloro-6-fluoro-N-[1-(4-fluorobenzenesulfonyl)-1H-pyrazolo-[4,3-c]pyridin-6-yl]benzamide] | –
24 | – | 4100 | Cc1nn(C(F)F)cc1S(=O)(=O)N1C[C@H](CN2CC[C@@H](O)C2)Cc2ncc(NC(=O)[C@@H](C)C(C)(C)C)cc21 [Compound 95, (S)-N-((S)-5-((1-(difluoromethyl)-3-methyl-1H-pyrazol-4-yl)sulfonyl)-7-(((R)-3-hydroxypyrrolidin-1-yl)methyl)-5,6,7,8-tetrahydro-1,5-naphthyridin-3-yl)-2,3,3-trimethylbutanamide] | –
25 | – | 24 | CCN(CC)[C@@H]1Cc2ncc(NC(=O)c3c(Cl)cccc3Cl)cc2N(S(=O)(=O)c2cccc(C)c2)C1 [Compound 79] | –
26 | – | 32 | O=C(Nc1cnc2c(c1)N(S(=O)(=O)c1cccc(Cl)c1)C[C@H](CN1CC[C@@H](O)C1)O2)c1c(Cl)cccc1Cl [Compound 89] | –
27 | – | 23 | N[C@H](CO)C(=O)NC1Cc2ncc(NC(=O)c3c(Cl)cccc3Cl)cc2N(S(=O)(=O)c2cccc(C(F)(F)F)c2)C1 (some centres unmarked) [Compound 60] | –
28 | 6440 | – | O=C(Nc1cc2c(cn1)cnn2S(=O)(=O)c1cccc(Cl)c1)c1c(F)cccc1Cl [Compound 7] | –
29 | – | 17 | O=C(Nc1cnc2c(c1)N(S(=O)(=O)c1cccc(C(F)(F)F)c1)CC(N1CCOC1=O)C2)c1c(Cl)cccc1Cl (stereo in doubt) [Compound 98, (R)-2,6-dichloro-N-(7-(2-oxooxazolidin-3-yl)-5-((3-(trifluoromethyl)phenyl)sulfonyl)-5,6,7,8-tetrahydro-1,5-naphthyridin-3-yl)benzamide] | –
30 | – | 24 | N[C@H]1Cc2ncc(NC(=O)c3c(Cl)cccc3Cl)cc2N(S(=O)(=O)c2cccc(C(F)(F)F)c2)C1 [Compound 57] | –
31 | 20 | – | CC1COc2ncc(NC(=O)c3c(Cl)cccc3C(F)(F)F)cc2N1S(=O)(=O)c1ccc(F)cc1 (centres unmarked) [Compound 19] | –
32 | 3520 | – | CC(C)(C)c1cccc(S(=O)(=O)n2ncc3cnc(NC(=O)c4c(F)cccc4Cl)cc32)c1 [Compound 9] | –
33 | – | 132 | C[C@H](O)C(=O)N[C@@H]1Cc2ncc(NC(=O)c3c(Cl)cccc3Cl)cc2N(S(=O)(=O)c2cccc(C(F)(F)F)c2)C1 [Compound 56] | –
34 | – | 1330 | CN1CCN(C[C@H]2CN(S(=O)(=O)c3cccc(Cl)c3)c3cc(NC(=O)c4c(Cl)cccc4Cl)cnc3O2)CC1 [Compound 91] | –
35 | 1060 | – | O=C(Nc1cc2c(cn1)cnn2S(=O)(=O)c1cccc(OC(F)F)c1)c1c(F)cccc1Cl [Compound 8] | –
36 | – | 25 | CCN(CC)[C@H]1Cc2ncc(NC(=O)c3c(Cl)cccc3Cl)cc2N(S(=O)(=O)c2cccc(C)c2)C1 [Compound 78] | –
37 | – | 57 | Cc1cccc(S(=O)(=O)N2C[C@H](C)Oc3ncc(NC(=O)C(C)c4ccccc4C)cc32)c1 (some centres unmarked) [Compound 31] | –
38 | – | 204 | Cc1nn(C(F)F)cc1S(=O)(=O)N1C[C@H](NC(=O)OC(C)C)Cc2ncc(NC(=O)c3c(F)cccc3Cl)cc21 [Compound 66] | –
39 | – | 6 | CC(C)(C)OC(=O)N[C@@H]1Cc2ncc(NC(=O)c3c(Cl)cccc3Cl)cc2N(S(=O)(=O)c2cccc(Cl)c2)C1 [Compound 45] | –
